Data set [1] addresses T1, CTSB activity in MDA-MB-231 cell lysates (Homo sapiens, UniProt P07858).
T1 construct: endogenous in cells; host or cells: MDA-MB-231 (ATCC) cell lysate
Description: Inhibition of cellular cathepsin B activity in MDA-MB-231 cell lysates (Z-Arg-Arg-AMC). The format is biochemical. The note with it: for IC50: MDA-MB-231 lysate. The procedure: (§1) TNBC cell lines were originally purchased from American Type Culture Collection (Rockville, MD, USA) and authenticated using the STR PowerPlex 16 system (Promega). Cells were cultured in basal medium supplemented with 10% fetal bovine serum (MDA-MB-231, DMEM; Hs578T, DMEM + 10 μg/ml bovine insulin). To prepare cell lysates, cells were grown on 100 mm dishes to ~80% confluency, washed twice with PBS (phosphate buffered saline), scraped and lysed in SME buffer (250 mM sucrose, 25 mM MES, 1 mM EDTA, pH 6.5, and 0.1% Triton X-100) and then sonicated on ice three times for 10 sec each. CTSB activity was measured as previously described. Briefly, 50 μl of cell lysate was incubated with 300 μl of activator buffer (5 mM EDTA, 10 mM DTT (pH 5.2) at 37°C during 15 min. The sample (1 μl) was added to 100 μl of the activator buffer containing cell lysate and the reaction mixtures were conducted during 45 min under dark (no irradiation) and light (irradiation at 250 W, 395–750 nm) conditions for 45 min with a tungsten halogen lamp and H2O filter on separate plates as described above. The experiments were carried out in triplicate (on 96-well flat bottom black plates) at pH 6.0.

Data set [2] deals with T2, CTSB activity in Hs578T cell lysates (Homo sapiens, UniProt P07858).
T2 construct: endogenous in cells; host or cells: Hs578T (ATCC) cell lysate
Description: Inhibition of cellular cathepsin B activity in Hs578T cell lysates (Z-Arg-Arg-AMC). The class given is biochemical. Particulars: for IC50: Hs578T lysate. The procedure: as §1

In data set [3] the test system is MDA-MB-231 3D MAME cultures. As to the kind of experiment: Live-cell proteolysis assay (DQ-collagen IV) in 3D MAME cultures, MDA-MB-231. The class given is cell-based, human. The procedure: (§2) Proteolytic cleavage of DQ-collagen IV substrate (Invitrogen, Carlsbad, CA, USA) by live TNBC cells was imaged in real time and quantified as previously described. Briefly, glass coverslips were coated with 50 μl of 16.4 mg/ml Cultrex^TM containing 25 μg/ml DQ-collagen IV and incubated for 15 min at 37°C to solidify. TNBC cells (1.0 x 10^4) were seeded onto coated glass coverslips and incubated for 60 min. Medium containing 2% Cultrex^TM was added to the cells. The sample was added every 48 h. […] Where indicated, assays were performed in the presence of CA074 and CA074Me (5 μM each) (Peptides International, Louisville, KY, USA), compound 1 or compound 2. For experiments with the caged inhibitor, cells were exposed to dark (no irradiation) and light (irradiation at 250 W, 395–750 nm) conditions for 45 min with a tungsten halogen lamp and H2O filter on separate plates. After 4 days of culture, optical sections through the entire depth of the 3D structures were acquired on a confocal microscope and, reconstructed in 3D using Volocity software. At the time of imaging cells were stained with CellTracker Orange and nuclei with Hoechst 33342. Volocity software was used to determine cellular boundaries in each confocal slice and generate a “cytoplasmic mask” as well as to count nuclei. The intensity of DQ-collagen IV degradation fragments per cell was quantified in the entire 3D volume. Degradation fragments were segmented into those present inside or surrounding the cells by using image arithmetic as we have previously described in detail.

A further data set has as its system Hs578T 3D MAME cultures. As to the kind of experiment: Live-cell proteolysis assay (DQ-collagen IV) in 3D MAME cultures, Hs578T. The format is cell-based, human. The procedure: as §2
In data set [4] the test system is MDA-MB-231 3D MAME cultures. As to the kind of experiment: Cell viability (Live/Dead) assay, MDA-MB-231 3D MAME cultures. The format is cell-based. Particulars: in the dark or the light, 4 days. The procedure: Three-dimensional cultures of TNBC cells were established, grown and treated with compound 2 as described above. After 4 days, a cell viability assay was performed to assess the cytotoxic effects of compound 2. The assay has two components: Calcein AM that fluoresces green when cleaved by intracellular esterases thereby labeling live cells and Ethidium Homodimer-1 that fluoresces red when incorporated in the DNA of dead cells. A solution of 4 μM Ethidium Homodimer-1 and 2 μM Calcein AM was prepared in sterile PBS. Cultures were incubated for 30 minutes at 37°C, washed once with warm PBS and replenished with warm MEGM media for live cell imaging. The samples were then imaged at 10X magnification using a Zeiss 510 META confocal microscope. Tiled 16-panel images and z-stacks through the depth of structures were captured. The images were processed to show top views using Volocity software.

The nature of data set [5]: Stability in the dark, determined spectrophotometrically (ln A vs. t). The format is physicochemical. The text has this:
This was expected because cis-[Ru(bpy)2Cl2] was used as a racemic mixture of Δ- and Λ stereoisomers. […] The electronic absorption spectrum of 2 is highly consistent with other dications of the general formula cis-[Ru(bpy)2(RCN)2]^2+, where RCN is MeCN,^130 5-cyanouracil,^124 and protease inhibitors structurally related to 1 [17–18]. Data for 2 in water containing 2% acetone show a maximum at 420 nm (ε = 10,360 M^-1cm^-1) assigned to a singlet metal-to-ligand charge transfer (^1MLCT) transition.

Data set [6] is described as follows: Photoinduced ligand exchange quantum yield. The class given is physicochemical. The procedure: Electronic absorption spectra were measured with a Hewlett-Packard 8453 diode array spectrophotometer. The ligand exchange quantum yield experiments were performed with a 150 W Xe arc lamp (USHIO) in a Milliarc lamp housing unit with an LPS-220 power supply and an LPS-221 igniter (PTI). A bandpass filter (Thorlabs) and long-pass filter (CVI Melles Griot) were used to select the appropriate irradiation wavelengths.
The photolysis experiments were performed in H2O with 2% acetone and in an acetone solution containing 0.25 M tetrabutylammonium, and the chloride (TBACl) in a 1 × 1 cm quartz cuvette, and the irradiation wavelengths were selected with a 395 nm long-pass filter. The photon flux of the arc lamp with a 335 nm long-pass filter and a 400 nm bandpass filter was determined to be 4.30 ± 0.25 × 10^−8 mol photons/min by ferrioxalate actinometry as previously described in detail. The quantum yields (Φ) for ligand dissociation of 2 were determined in each of the solvent systems in a 1 × 1 cm quartz cuvette. The decrease in the MLCT absorption maximum of the reactant with ε = 10,360 M^–1cm^–1 at 412 nm as a function of time was monitored at early irradiation times to calculate the rate of moles of reactant converted to intermediate, I. The increase of the MLCT absorption maximum of the product at 490 nm (ε = 9,300 M^–1cm^–1) was monitored at irradiation times after the formation of the intermediate to determine the rate of moles of product P formed. These rates along with the photon flux were used to calculate the quantum yields for the first and second steps, ΦR→I and ΦI→P, respectively.

Setting [7] is: dark (no irradiation) 45 min, read-out: IC50 (dark).
The mark [8] stands for this setting: light λirr = 395–750 nm, 45 min, read-out: IC50 (light).
[9] abbreviates: acetone solution containing 0.25 M TBACl.
The mark [10] stands for this setting: water (2% acetone), λirr = 400 nm.

One molecule from paper PMC4643019, “Imaging Sites of Inhibition of Proteolysis in Pathomimetic Human Breast Cancer Cultures by Light-Activated Ruthenium Compound” (PLoS ONE, 2015) can be followed below.

Each structure is given as a SMILES string. Read-outs that look alike come from different tables or passages of the source.

Usually IC50 stands for the concentration that gives 50% inhibition.

As to `Cc1cccc(CC(NC(=O)c2ccc(Cl)c(Cl)c2)C(=O)NCC#N)c1.Cc1cccc(CC(NC(=O)c2ccc(Cl)c(Cl)c2)C(=O)NCC#N)c1.F[B-](F)(F)F.F[B-](F)(F)F.[Ru+2].c1ccc(-c2ccccn2)nc1.c1ccc(-c2ccccn2)nc1` (mixture of isomers) [compound 2, Δ- and Λ-cis [Ru(bpy)2(1)2](BF4)2], the dark/light ratio in data set [1] (MDA-MB-231 cell lysates) stood at 79.6; in data set [2] (Hs578T cell lysates) it was 12.6. Moreover, the IC50 in data set [1] (setting [7]) was found to be 126 µM; in data set [1] (setting [8]) it was 1.58 µM; in data set [2] (setting [7]), 11.2 µM; in data set [2] (setting [8]), 0.89 µM. In addition, the “degradation of DQ-collagen IV” value in data set [3] (MDA-MB-231, 1 μM, exposed to visible light, 4 days) is recorded as “significantly reduced”; in the data set on Hs578T 3D MAME cultures (1 μM, exposed to visible light, 4 days) it was “significantly reduced”. Moreover, the “inhibition of proteolysis in the dark” value in data set [3] (MDA-MB-231, higher concentrations than 1 μM, dark (data not shown)) was “significant inhibition of proteolysis”; in the data set on Hs578T 3D MAME cultures (higher concentrations than 1 μM, dark (data not shown)), “significant inhibition of proteolysis”. The “toxicity by cell viability assay” value in data set [4] is given as “did not observe any toxicity”. The “kobs, rate constant for decomposition in the dark” value was 1.6 ± 0.1 × 10^−7 s^-1 in data set [5] (DMSO, 293 ± 2 K) and 1.2 ± 0.1 × 10^−6 s^-1 in data set [5] (phosphate buffered saline, pH 6.5, 293 ± 2 K). For the same molecule, the “quantum yield of ligand exchange, first step ΦR→I” value was 0.056(9) in data set [6] (setting [9]) and 0.026(4) in data set [6] (setting [10]). In addition, the “quantum yield of ligand exchange, second step ΦI→P” value is 0.032 in data set [6] (setting [9]) and 0.0045(9) in data set [6] (setting [10]).
